Experimental data taken from patent publication US8937056B2, “Multikinase inhibitors for use in the treatment of cancer” (Eisai R&D Management Co., Ltd., priority 2007, dated 2015).
Like-named read-outs stand apart in the source and are kept apart here. Values belong to the molecule of their own block, whether it stands above or below them.

Key:
[1] = tested on: Map/Erk kinase (MEK); conditions: cited from earlier work
[2] = tested on: PANC-1 pancreatic cancer cells; assay: PANC-1 cell growth, alone or in combination with SN-38 (CellTiter-Glo)
Experimental: To determine whether compounds 091 or 106 in combination with SN-38 would enhance the anticancer activity of chemotherapy due to MEKK1 inhibition, PANC-1 human pancreatic cancer cells were examined.
Antiproliferative effects of SN-38 were evaluated in PANC-1 pancreatic cancer cells in combination with compound 091 or 106. Cultured human cancer cells were placed into 96-well plates and grown in the absence or continuous presence of 0.03-1000 nM SN-38 for 96 h with or without 1 μM of test compound. Cell growth was assessed using CellTiter-Glo® Luminescent Cell Viability Assay (Promega). IC50 values were determined as the concentration of a substance which inhibits cell growth by 50% compared to untreated cell populations.

[3] = tested on: Cell lines which carried a B-RAF V600E mutation; assay: Cell growth inhibition in solid cancer cell lines (CellTiter-Glo or methylene blue); assay type: cell-based; conditions: 96 hours, B-RAF V600E mutated cell lines very sensitive
Experimental: Compounds 091 and 106, were extensively tested in solid cancer cell lines (shown in FIG. 3 for 18 cell lines for compound 091 and 20 cell lines for compound 106). […] Cell growth was assessed using a CellTiter-Glo® Luminescent Cell Viability Assay (Promega) or a methylene blue assay.

[4] = tested on: Flt-3 receptor; assay: Phosphorylation of Flt-3 receptor in MV-4-11 cells (immunoblot); assay type: cell-based, human; conditions: 24 h
Experimental: A study was carried out to investigate the ability of compound 106 to inhibit phosphorylation of Flt-3 receptor in a FLT3-mutated (AML) cell line in vitro. MV-4-11 human acute myeloid leukemia (AML) cells (Catalog #CRL-9591, ATCC, Rockville, Md.), which carry an activation mutation of Flt-3, were plated into a […] flasks and incubated for 1 day. Then, compound 106 at concentrations of 0.1 nmol/L-300 nmol/L (or culture medium) were added to each flask and cultured for 24 h. The control dish received cultured medium alone. Cells lysates were prepared using ice cold lysis buffer. In order to detect phospho-Flt-3 protein, MV-4-11 cell lysate proteins were subjected to SDS-PAGE under reducing conditions and immunoblotted with an antibody against phospho-Flt-3 antibody (Catalog #3464, Cell Signaling Technology, Danvers, Mass.). Western blots were probed with secondary IRDye antibodies (LI-COR, Inc., Lincoln, Nebr.). Blotted proteins were visualized using the Odyssey infrared imaging system (LI-COR, Inc., Lincoln, Nebr.). Anti-actin antibody (Catalog #sc-8432, Santa Cruz Biotechnologies, Inc., Santa Cruz, Calif.) was used as a loading control.

[5] = target: MEK1 (Homo sapiens, UniProt Q02750); assay: Biochemical MEK1 assay (ELISA, ERK2-coated plate); conditions: 1 μmol/L ATP
Sequence of MEK1 (Q02750 whole entry): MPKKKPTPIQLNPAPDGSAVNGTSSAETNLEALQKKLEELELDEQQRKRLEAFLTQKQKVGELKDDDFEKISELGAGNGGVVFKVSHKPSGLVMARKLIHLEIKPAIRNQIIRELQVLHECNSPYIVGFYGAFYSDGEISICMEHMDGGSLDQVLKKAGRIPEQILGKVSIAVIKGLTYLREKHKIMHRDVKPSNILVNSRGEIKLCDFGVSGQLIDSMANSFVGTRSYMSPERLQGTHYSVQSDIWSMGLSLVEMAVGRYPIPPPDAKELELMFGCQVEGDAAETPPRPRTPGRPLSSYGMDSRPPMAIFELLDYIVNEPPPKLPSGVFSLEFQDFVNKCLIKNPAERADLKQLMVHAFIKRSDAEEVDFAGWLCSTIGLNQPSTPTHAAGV
Experimental: A biochemical MEK1 assay was carried out to investigate whether compounds of formula (I) or (II), e.g., compounds 029, 091, 106 and 114 are MEK1 inhibitors. Biochemical MEK1 inhibition of the compounds was assessed using an ELISA assay. All assays were performed in a 96 well format. A plate coated with ERK2, a substrate protein for MEK1 was used for biochemical MEK1 assay. In a final volume of 40 μL, MEK1 (25 ng) was incubated with 50 mmol/L HEPES, 20 mmol/L MgCl2, 4 mmol/L MnCl2, and 0.5 mmol/L Na3VO4 in the absence or presence of the test compounds. The reaction was initiated by the addition of 1 μmol/L ATP. After incubation for 40 minutes at 30° C., the reaction mixture was discarded and the plate was then washed 4 times with 0.05% Tween20/PBS. Each well was incubated with 100 μL of 1:4000 diluted phospho-ERK1/2 monoclonal antibody (Cell Signaling, MA) for 1.5 hours at room temperature. The antibody was then discarded and the plate was washed 6 times with 0.05% Tween20/PBS. Finally, 100 μL of 1:2000 diluted of HRP conjugated anti-mouse IgG antibody (Cell Signaling, MA) was added. After incubation for 90 minutes, this antibody was discarded and the plate was washed 8 times with 0.05% Tween20/PBS. Phosphorylated ERK2 was then visualized by peroxidase reaction, and read at 450 nm. FIG. 2A is a table depicting results from MEK1 assays.

[6] = tested on: Colo205 human colon cancer xenografts; assay: In vivo antitumor activity in Colo205 xenografts; parameters: species or system mice; conditions: similar study with a different dosing schedule
Experimental: A study was carried out to investigate anticancer activity of compounds 091 and 106 in human Colo205 BRAF mutated colon cancer xenografts. The compounds were evaluated against subcutaneous-implanted Colo205 human colon cancer xenografts in female athymic mice.
(§1) The human colon cancer cell line, Colo205 which has B-RAF (V600E) mutation was transplanted subcutaneously into female nude mice. The experiment consisted of 6 mice per group on the first day of treatment. The compound was administered intravenously for two weekly rounds of five daily injections (q1d×5) with a two-day rest period between the rounds. Compound 091 was administered in a vehicle volume of 0.1 mL/10 g of body weight.
The general health of the mice was monitored daily. Tumor dimensions and body weights were recorded twice a week starting on the first day of treatment. Tumor weights were calculated using the equation (l×w^2)/2, where 1 and w refer to the larger and smaller dimensions collected at each measurement. When the mean tumor volume reached 140 mm^3, vehicle (cremophor:ethanol:5% glucose; 1:1:8) or the test compound (30 mg/kg) was administered to mice (6/group).

[7] = tested on: human hematologic cancer cell lines; assay: Antiproliferative effects in hematologic cancer cell lines (MTT assay); assay type: cell-based; conditions: cell lines derived from leukemia, or B-cells such non-Hodgkin's lymphoma, 96 h
Experimental: A study was carried out to investigate anticancer activity of compounds 091 and 106 in a panel of human hematologic cancer cell lines in vitro. Antiproliferative effects of compounds 091 and 106 were evaluated in 7 human cancer cell lines representing several different cancer types of hematologic malignancy. […] Cell growth was assessed using the MTT assay.

[8] = tested on: LOX human melanoma xenografts; assay: In vivo antitumor activity in LOX xenografts; parameters: species or system mice
Experimental: A study was carried out to investigate anticancer activity of compounds 091 and 106 in human LOX BRAF mutated melanoma xenografts. The compounds were evaluated against subcutaneous-implanted LOX human melanoma xenografts in female athymic mice.
as §1, with “human melanoma” for “human colon cancer”, “line, LOX” for “line, Colo205”, “of 8” for “of 6”, “treatment. Compounds were independently” for “treatment. The compound was”, “rounds. Compounds were” for “rounds. Compound 091 was”
The general health of the mice was monitored daily. Tumor dimensions and body weights were recorded twice a week starting on the first day of treatment. Tumor weights were calculated using the equation (l×w^2)/2, where 1 and w refer to the larger and smaller dimensions collected at each measurement. When the mean tumor volume reached 128 mm^3, vehicle (cremophor:ethanol:5% glucose; 1:1:8) or one of the test compounds (10, 20, 30, or 40 mg/kg) was administered to mice (8/group).

[9] = tested on: MV-4-11 AML cells; assay: MV-4-11 cell proliferation assay (CellTiter-Glo); assay type: cell-based, human; conditions: 96 h
Experimental: A study was carried out to investigate the anticancer activity of compound 106 in a FLT-3 mutated (AML) cell line in vitro. The antiproliferative effects of compound 106 were determined in a cell proliferation assay using MV-4-11 AML cells. […] Luminescence was read on the EnVision 2102 Multilabel Counter (Perkin-Elmer/Wallac, Waltham, Mass.). The software, Graphpad Prism (ver. 4, San Diego, Calif.) was used for determination of IC50 values. The raw value for the untreated control represents an average from 4 wells.

SMILES: COc1cc(O)c2c(c1)/C=C/C[C@H](O)[C@H](O)C(=O)/C=C\C[C@H](C)OC2=O [Compound F152]
inhibition of MEK [1]: inhibit

IC50 ([2]; read-out: IC50 for cell growth inhibition in combination setting, SN-38 with 1 μM of compound 091 or compound 106, 96 h): 0.0162 µM
IC50 ([2]; read-out: IC50 for cell growth inhibition, SN-38 alone, 96 h): 0.0825 µM
SMILES: CCc1c2c(nc3ccc(O)cc13)-c1cc3c(c(=O)n1C2)COC(=O)[C@]3(O)CC [SN-38, reference compound]

SMILES: CCNc1cc(O)c2c(c1)/C=C/C[C@H](O)[C@H](O)C(=O)/C=C\[C@@H](C)[C@H](C)OC2=O [Compound 106]
cell growth inhibition, concentration range of sensitivity [3]: low-nM or sub-μM
constitutive phosphorylation of Flt-3 receptor ([4]; 10 nmol/L): completely inhibited
protein level of phospho-Flt-3 ([4]; 0.1-300 nmol/L, concentration dependent): decreased
MEK1 inhibitory activity [5]: low nM activity
tumor regression from the first day of treatment [6]: 70%
effect on PANC-1 cancer cell growth, compound alone ([2]; 1 μM alone, separate experiments (data not shown)): did not affect
sensitivity of cell growth [7]: sensitive
mice tumor free at the end of study ([8]; 10 mg/kg): 5 out of 8
mice tumor free at the end of study ([8]; 20 mg/kg): 8 out of 8
mice tumor free at the end of study ([8]; 40 mg/kg): 8 out of 8
anticancer activity ([8]; three dosages, 10, 20, and 40 mg/kg/dose): statistically significant anticancer activity
IC50, antiproliferative activity [9]: low-nmol/L
